ChEMBL document CHEMBL1156829 (Proc Natl Acad Sci U S A, 2008)

What was measured:
[1] = system: Plasmodium falciparum; assay: NOVARTIS: Inhibition of Plasmodium falciparum W2 (drug-resistant) proliferation in erythrocyte-based infection assay; format: functional, organism-based; conditions: read-out: EC50
[2] = system: Plasmodium falciparum; assay: NOVARTIS: Inhibition of Plasmodium falciparum 3D7 (drug-susceptible) proliferation in erythrocyte-based infection assay; format: functional, organism-based
[3] = NOVARTIS: Cytotoxicity against human hepatocellular carcinoma cell line (Huh7); format: toxicity, cell-based, Huh-7; conditions: Huh7 cells (hepatocellular carcinoma cell line)

Structure (SMILES)	EC50 ([1]; Plasmodium falciparum, W2) [µM]	EC50 ([2]; Plasmodium falciparum, 3D7) [µM]	CC50 [3] [µM]	EC50 [1] [µM]	EC50 [2] [µM]
CCOC(=O)c1sc(-c2cnccc2C(F)(F)F)nc1C	0.172	> 0.912	> 10	–	–
Cc1ccc(-n2c(C(C)N(CCc3ccccc3)C(=O)c3cccc(F)c3)nc3ccccc3c2=O)c(C)c1 (configuration not stated)	0.764	> 1.25	> 10	–	–
O=[N+]([O-])c1cccc(-c2ccc(C=NNc3nc4ccccc4[nH]3)o2)c1	0.344	0.379	> 100	–	–
CCCn1c(-c2cccc(Br)c2)nc2ccccc21	> 1.22	> 1.14	> 10	–	–
Cc1ccccc1NC(=O)N(CCCNC(=O)CCl)c1ccccc1	1.77	> 0.442	> 10	–	–
Cc1cc(C)nc(NNc2c([N+](=O)[O-])cccc2[N+](=O)[O-])n1	0.167	1.8	22	–	–
O=C(C1CC1)N1CCOc2c(cc(-c3csc4ccccc34)cc2OCCc2ccccn2)C1	0.594	0.711	68.2	–	–
COc1ccc2nc(C)cc(Nc3ccc(Oc4ccc(Br)c5ccccc45)c(Cl)c3)c2c1	2.35	1.11	18.3	–	–
COc1ccc(C2CC(=O)C3=C(C2)NC(C)=C(C(=O)OC(C)C)C3c2ccc(Cl)cc2Cl)cc1OC (configuration not stated)	0.00391	0.0063	> 100	–	–
O=C(Nc1ccc(-c2nc3cc(NC(=O)C(c4ccccc4)c4ccccc4)ccc3[nH]2)cc1)C(c1ccccc1)c1ccccc1	3.68	4.45	> 100	–	–
COC(=O)C1=C(C)NC(=Cc2cc(C)n(-c3cc(C)ccc3OC)c2C)C1=O	0.0704	0.0348	> 100	–	–
CC(C)CNC(=O)c1cnc(NCCCn2ccnc2)nc1NCC1CCCCC1	0.379	0.278	> 10	–	–
CN1CCc2c(sc3nc(SCc4ccc(F)cc4)n(-c4ccccc4)c(=O)c23)C1	0.32	0.498	> 100	–	–
C=CCNC(=O)c1ccc2c(c1)N=C(CC(C)c1ccccc1)N(CC1CCCCC1)C2 (configuration not stated)	1.53	> 1.25	> 10	–	–
Nc1cccc(Oc2ccc3c(c2)C(=O)N(c2cccc(C(=O)O)c2)C3=O)c1	> 0.277	> 1.25	> 10	–	–
CCOC(=O)N1CCN(C(=O)CSc2nc(-c3ccc(Cl)cc3)cn2-c2ccc(C)cc2)CC1	> 1.25	0.71	> 10	–	–
COc1ccc(OC)c(-c2ccc(O)c(CNC3CCCCCCC3)c2)c1	0.952	0.767	> 10	–	–
CC(C)CNc1nc(NCCCn2ccnc2)ncc1C(=O)NCc1ccccc1	0.443	0.257	> 10	–	–
O=C(Cn1c2ccccc2c(=O)c2ccc(Cl)cc21)Nc1ccc(C(F)(F)F)cc1	4.54	9.87	> 100	–	–
COc1cccc(OCC(=O)NN=C(C)CC(=O)NCc2ccco2)c1	0.901	> 12.5	> 100	–	–
CN(CCCNc1ccnc2cc(Cl)ccc12)C(=O)c1cccc(Cl)c1	0.202	0.269	7.34	–	–
C(=NNc1nc2ccccc2[nH]1)c1ccccc1	1.19	0.587	> 100	–	–
COc1cccc(Cn2c(C)nc3cc(NC(=O)Nc4ccccc4)c(C)nc32)c1	0.163	> 0.443	> 13.1	–	–

Structure (SMILES)	EC50 ([1]; Plasmodium falciparum, W2) [µM]	EC50 ([2]; Plasmodium falciparum, 3D7) [µM]	CC50 [3] [µM]	EC50 [1] [µM]	EC50 [2] [µM]
CC(C)CNC(=O)c1cnc(NCCCN(C)C)nc1NCCc1ccccc1	> 1.25	0.983	> 10	–	–
N=c1c2c(n(Cc3ccc(Cl)c(Cl)c3)c3c1CCC3)CCCC2	0.506	0.503	> 10	–	–
Cc1cc(C)n(-c2ccc(NC(=O)C3CCN(Cc4ccncc4)CC3)cc2)n1	1.48	1.28	> 100	–	–
Cc1cccnc1NC(c1ccc([N+](=O)[O-])cc1)c1ccc2cccnc2c1O (configuration not stated)	0.214	0.14	15	–	–
FC(F)(F)c1ccc(Nc2nnnc3ccccc23)cc1	7.23	7.72	> 100	–	–
O=C(Nc1ccc(Oc2cccc(Oc3ccc(NC(=O)c4ccc(Br)o4)cc3)c2)cc1)c1ccc(Br)o1	4.71	4.42	> 100	–	–
CN(C)CCNc1c2c(nc3ccccc13)CCC2	0.241	0.579	61.4	–	–
O=C(Nc1ccc(-c2nc3ccccc3[nH]2)cc1)c1ccc(Cl)c(Cl)c1	1.82	0.523	> 100	–	–
O=C(Nc1cc(C(F)(F)F)cc(C(F)(F)F)c1)Nc1ccc2nnsc2c1	4.36	6.37	19.4	–	–
O=C1C2C(C(=O)N1Cc1ccccc1)C1(c3ccccc3)C(=O)C2(c2ccccc2)C(c2ccccc2)=C1c1ccccc1 (configuration not stated)	> 12.5	0.822	> 100	–	–
CCOc1ccc(C(=O)C(C)[n+]2cc(-c3ccc(OC)cc3)n3c2CCC3)cc1 (configuration not stated)	0.595	0.506	33.2	–	–
Cc1ccc2c(c1)C1CN(C)CCC1N2C(=O)c1cc2ccccc2o1 (configuration not stated)	> 0.922	> 1.04	> 10	–	–
CCOc1ccc2nc(C)cc(Nc3ccc(Br)cc3)c2c1	0.182	0.114	7.29	–	–
OCCNc1nc(Nc2ccc(Cl)cc2)nc2ccccc12	0.508	0.321	11.6	–	–
C=CC1CC23CC(C(OC(=O)CCC(=O)O)c4ccnc5ccc(OC)cc45)N2CCC13 (configuration not stated)	0.0775	0.014	45.7	–	–
CC(C)CCNC(=O)CN1C(=O)c2cccnc2Oc2ccccc21	1.51	4.05	> 100	–	–
CC[n+]1ccc(C=Cc2ccc(N(C)C)cc2)cc1	–	–	> 84.9	> 4.46	0.409
CCOC(=O)C1=C(C)NC2=C(C(=O)CC(c3ccc(OC)cc3)C2)C1c1ccccc1F (configuration not stated)	0.0271	0.0741	> 100	–	–
C/C=C/C(C(=O)NCCCC)N1C(=O)c2cc(NC(C)=O)ccc2NC(=O)[C@@H]1C (some centres not stated)	0.00457	0.199	7.59	–	–
Cc1ccn2c(NC(C)(C)CC(C)(C)C)c(-c3ccccc3OC(=O)CCc3ccccc3)nc2c1	0.0186	0.853	> 10	–	–
Cc1cccc(NC(=O)c2ccc(N3CC4CC(C3)c3cccc(=O)n3C4)c(NC(=O)Cc3c(F)cccc3Cl)c2)n1 (configuration not stated)	0.197	> 1.45	> 10	–	–
O=c1oc(-c2ccccc2F)nc2sc3c(c12)CCCC3	1.57	> 12.5	> 100	–	–
Clc1ccc2c(NC3CCCCCCC3)ccnc2c1	0.881	1.04	> 13.7	–	–

Structure (SMILES)	EC50 ([1]; Plasmodium falciparum, W2) [µM]	EC50 ([2]; Plasmodium falciparum, 3D7) [µM]	CC50 [3] [µM]	EC50 [1] [µM]	EC50 [2] [µM]
CC(C)Cc1ccc(C=CC(=O)NC2CC2)cc1	1.47	1.15	> 100	–	–
CCOc1cc2c(cc1OCC)C(c1cc(Cl)ccc1O)NCC2 (configuration not stated)	0.0964	0.404	24.2	–	–
O=[N+]([O-])c1ccc(NN=Cc2cccs2)c(S(=O)(=O)N2CCCCCC2)c1	> 0.899	> 1.25	> 10	–	–
COC(=O)C1=C(C)NC2=C(C(=O)CC(c3ccccc3)C2)C1c1cc(C)sc1SC (configuration not stated)	0.205	0.671	> 100	–	–
CCc1cc(C(=O)N2CCC[C@@H]3CN(C(=O)c4ccc(F)cc4)CC[C@@H]32)n(C)n1	4.67	> 12.5	> 100	–	–
COc1ccc(C2C(C(=O)Nc3cccc(C(F)(F)F)c3)c3ccccc3C(=O)N2C2CCCCC2)cc1 (configuration not stated)	1.13	1.83	> 100	–	–
COc1cc2c(O[C@@H]3O[C@H](CO)[C@@H](O)[C@H](O)[C@H]3O)c3c(c(-c4ccc5c(c4)OCO5)c2cc1OC)C(=O)OC3	0.12	0.0743	0.784	–	–
CCOC(=O)C1=C(C)NC2=C(C(=O)CC(c3ccc(Cl)cc3)C2)C1c1ccc(Cl)cc1 (configuration not stated)	0.0515	0.0894	> 100	–	–
CN(C)CCCNc1ccnc2cc(Cl)ccc12	0.0763	0.0769	> 10	–	–
CSc1ccc(/C=C/C(=O)NC(=O)c2ccccc2O)cc1	0.131	0.127	> 10	–	–
CCCCc1ccc(C(=O)N(C)CCCNc2ccnc3cc(Cl)ccc23)cc1	0.0416	0.427	> 10	–	–
CN(CCCNc1ccnc2cc(Cl)ccc12)C(=O)c1cccc(Br)c1	0.137	0.0596	9.59	–	–
O=C(Nc1cc(C(F)(F)F)ccc1N1CCOCC1)C(Cl)(Cl)Cl	0.116	0.376	74.8	–	–
CC(C)(C)c1ccc(Oc2ccc(N3C(=O)C4CC=CCC4C3=O)cc2)cc1 (configuration not stated)	> 1.02	> 1.25	> 10	–	–
OCCNc1nc(Nc2ccccc2O)nc2ccccc12	2.47	1.86	58.7	–	–
CCN(CC)S(=O)(=O)c1cc(C(=O)O)ccc1Cl	> 1.17	0.64	> 10	–	–
O=C(N=CNNc1ccccc1F)c1cc(OCC(F)(F)F)ccc1OCC(F)(F)F	< 0.00313	> 0.532	> 10	–	–
O=C(Nc1ccc(Cl)cc1)Oc1ccccc1 [PHENYL 4-CHLOROPHENYLCARBAMATE]	2.01	> 12.5	51.9	–	–
CCOc1ccc(NC(=O)C(C)Sc2nc3ccccc3[nH]2)cc1 (configuration not stated)	> 7.6	> 12.5	> 100	–	–
CCCCOC(=O)Cc1ccc(N)cc1	0.284	0.462	5.97	–	–
Cc1cn2c3ccccc3n(CCN3CCOCC3)c2n1	> 12.5	> 2.48	> 100	–	–
c1ccc(-c2nn(-c3ccccc3)[n+](-c3ccccc3)n2)cc1	0.207	0.296	> 100	–	–
CCOC(=O)c1cn(CC)c2cc(N3CCCCC3)c(F)cc2c1=O	0.336	0.166	> 100	–	–
